Test results as given in US20130274233A1, “MODULATORS OF HEDGEHOG SIGNALING PATHWAY” (priority 2012, published 2013).

Assays:
Smo::EGFP [1] = target: T1, Smo::EGFP (Homo sapiens, UniProt Q99835); assay: High content screen for compound-induced Smo accumulation at the primary cilium (no Hh ligand); format: cell-based
T1 construct: expressed in transfected cells
Protocol: Cells were cultured and treated in 384-well imaging plate precoated with poly-D-Lysine (Greiner Bio-one), fixed with 4% paraformaldehyde (Electron Microscopy Sciences), and stained with Hoechst (Invitrogen). Images were collected using Opera High Content Screening System (Perkin Elmer).

Hh pathway activity [2] = assay: Gli-luciferase reporter assay, Hh pathway activation by compound alone (NIH/3T3 cells); format: cell-based
Protocol: (§1) ShhLightII cells and SmoM2/LightII cells were cultured and treated in 96 well assay plates (Corning) and incubated with Duo-Glo luciferase substrates (Promega) to sequentially measure firefly and renilla luciferase activity. Smo, or GFP, expression plasmids were co-transfected into 3T3 cells together with a Gli-responsive firefly reporter and a TK-renilla luciferase reporter contruct to monitor effects of Smo overexpression. Co-transfection of the two reporter constructs was conducted in assays measuring Hh pathway activity in suFU−/− cells. Wnt activity was measured following co-transfection of a Top-flash and renilla luciferase reporter. In both Hh and Wnt activity assays, renilla luciferase reporter activity, or mass of protein, was used to normalize expression values. Luciferase signal was read by TopCount NX Microplate Scintillation and Luminescence Counter (Perkin Elmer). Quantitative PCR probes for Ptch1, Gli1, and β-actin were purchased from Applied Biosystems. Reactions and measurements were performed using on an Applied Biosystems 7900HT at Harvard FAS Center of System Biology. β-actin was used to normalize Ptch1 and Gil1 values.

Hh pathway activity [3] = assay: Gli-luciferase reporter assay, Shh-induced Hh pathway activity (ShhLightII cells); format: cell-based; details: Gli-luciferase induction and Smo ciliary localization; 10 μM FA
From the text: (§2) NIH/3T3 cells were maintained in DMEM containing 10% (v/v) calf serum, penicillin, streptomycin, and L-glutamine. HEK293, L, cos 7, and suFU−/− mouse embryonic fibroblast cells were maintained in DMEM containing 10% (v/v) fetal bovine serum, penicillin, streptomycin, and L-glutamine. Smo::EGFP, SmoM2::GFP, and Ivs::tagRFPT were cloned into pBabe to generate retroviral particles for infection. Smo::EGFP/Ivs::tagRFPT and SmoM2::GFP/Ivs::tagRFPT stable cell lines were generated through viral infection of NIH/3T3^12. A ShhLightII Gli reporter cell line was obtained from the American Type Culture Collection (ATCC) and used in luciferase reporter assays to measure Hh pathway activity. The cell line contains a stably integrated Gli-responsive Firefly luciferase reporter and a constitutive Renilla luciferase expression construct^33. Subclones expressing Smo or SmoM2 in ShhLightII cells were used for chemical epistasis analyses.
(§3) Hh activity assays were performed using ShhLightll cells, Smo/Lightll cells, SmoM2/Lightll cells, and suFU−/− mouse embryonic fibroblasts. In the suFU−/− cells, Hh activity was measured after co-transfection with Gli driven firefly luciferase and TK-renilla luciferase reporters^41. Wnt activity was measured in 293 cells co-transfected with Top-flash and TK-renilla luciferase reporters^42. Cells were cultured and treated in 96 well assay plates (Corning) and incubated with Duo-Glo luciferase substrates (Promega) to measure firefly and renilla luciferase activity sequentially using a Top Count NX Microplate Scintillation and Luminescence Counter (Perkin Elmer). The renilla luciferase signal was used to normalize the firefly reporter activity.
as §1

Smo = assay: Bodipy-cyclopamine competition assay in Cos 7 cells expressing Smo; format: binding; details: cells over-expressing Smo, 5 nM Bodipy-cyclopamine
Protocol: Cos 7 cells were transfected with a plasmid co-expressing Smo and a nuclear localized form of tagRFPT (pCIT-Smo). An empty parental construct (pCIT), and a construct that co-expresses SmoM2, were used as controls to assess specificity and background noise. Three days after transfection, cells were incubated with 5 nM Bodipy-cyclopamine, with or without other compounds for 1 hour at 37 °C. Cells were washed, fixed and stained with Hoechst. Images were collected by an Opera High Content Screen System. Bodipy fluorescence was quantified specifically for transfected cells (determined by red tagRFPT+ nucleus) using a program developed by the authors with Acapella 2.0 software. All of the images were scanned with identical microscopic settings and analyzed with the same input parameters.
Cos 7 cells were transfected with a plasmid that co-expresses Smo and a nuclear localized tagRFPT marker (pCIT-Smo). The empty parental construct (pCIT) and a construct that co-express SmoM2 were used as controls to assess specificity and background signal. Three days after transfection, cells were incubated with 5 nM Bodipy-cyclopamine, with or without additional compounds, for 1 hour at 37° C. Cells were then fixed and stained with Hoechst. Images were collected with the Opera High Content Screen System. Fluorescence values were assessed in transfected cells (red nuclei) with a program developed by the authors using Acapella 2.0 software. All of images were scanned with identical microscopic setting and analyzed with the same input parameters.

Hh pathway activity [4] = assay: Priming and withdrawal of compound followed by Shh stimulation, Gli-luciferase reporter (hypersensitivity); format: cell-based; details: priming 24 hours, washout, then Shh (or SAG) stimulation
Protocol: as §3
Following the removal of drug containing medium, and extensive washing, cells were stimulated with either Hh ligand, or the direct-binding Smo agonist SAG^17,18.
as §1

[5] = human cancer patients, after a single high dose; cited from earlier work
Smo::EGFP [6] = target: T1, Smo::EGFP; assay: High content assay of Shh-induced Smo::EGFP accumulation in the primary cilium (Smo::EGFP/Ivs::tagRFPT NIH/3T3 cells); format: cell-based; details: in the presence of Shh
From the text: as §2
(§4) Cells were cultured and treated in 384-well imaging plate precoated with poly-D-Lysine (Greiner Bio-one), fixed with 4% paraformaldehyde (Electron Microscopy Sciences), and stained with Hoechst (Invitrogen). Images were collected using Opera High Content Screening System (Perkin Elmer). Activityl)ase (IDBS Inc, Emeryvill, Calif.) and Pipeline Pilot (Accelrys, Inc. San Diego, Calif.) were used for high content screening data management and analysis. Acapella 2.0 software (Evotec Technologies/PerkinElmer) was used to perform multi-parametrical high content image quantification. All the images for comparison were scanned with identical microscopic settings and analyzed with the same input parameters.
(§5) Acapella 2.0 software (Evotec Technologies/PerkinElmer) was used to perform multi-parametric high content image quantification. Our image analysis script used Ivs::tagREPT to first determine the location of the PC and then Smo::EGFP to quantify the level of Smo present in the cilium.
The inventors used the spot-finding algorithm in the RFP channel to find Ivs-rich spots. Each non-overlapping spot was based on a maximum 8 pixel-radius (when using a 40× objective) around a central intensity peak of 5 pixels. A distance of at least 10 pixels was required between adjacent spot centers. Spot peaks had to exceed thresholds of relative intensity compared to the remaining body of the spot as well as to the entire image. The average, maximum and total RFP intensity of each spot were measured. The spots with sufficiently high absolute maxima to pass the selected threshold were classified as positive spots. To form candidate cilia, the inventors selected the brightest 15% of the pixels in each positive spot and merged those pixels into objects so that the brightest parts of adjacent spots could form single, larger cilia-shaped objects. To qualify the candidate cilia as true Ivs-positive cilia, the width of the objects created from merging the brightest pixels in each spot had to be at least 2 pixels and the length to half-width ratio had to exceed 3. (i.e. a 3-pixel long by 2-pixel wide cilium was the minimum accepted cilium size and the length had to be at least 1.5 fold of the width). The mean GFP intensity within these Ivs-positive cilia was used to estimate the ciliary level of Smo protein. The inventors subtracted the background of the mean GFP intensity in the 3-pixel wide area around each candidate cilium to avoid some false positives. Those Ivs-positive cilia that exceed the final mean GFP intensity threshold set for each experiment were deemed Smo-positive cilia.
Hoechst staining was used to determine the total number of nuclei per well.
Measurements of the geometry of the cilia as well as the total fluorescent intensities of each cilium in the Smo- and Ivs-channels were used to determine if any of the compounds were having unusual effects on cilia size, intensity or frequency of observation or combinations of all three characteristics.

SmoM2::GFP = target: T2, SmoM2::GFP (Homo sapiens, UniProt Q99835, W535L); assay: Ciliary localization of SmoM2::GFP (3T3/SmoM2::GFP Overexpression/Ivs::tagRFPT); format: cell-based; details: SmoM2::EGFP overexpressing cells
T2 construct: expressed in transfected cells
From the text: as §2, §4, §5

SmoM2 = assay: Gli-luciferase reporter induced by SmoM2::GFP overexpression (SmoM2/LightII cells); format: cell-based; details: SmoM2 versus wild-type Smo
From the text: as §2, §3, §1

[7] = tested on: Hh pathway activation induced by loss of suFU; assay: Gli-luciferase assay in suFU−/− mouse embryonic fibroblasts; format: cell-based; details: suFU−/− cells
Protocol: as §3
ShhLightII cells and SmoM2/LightII cells were cultured and treated in 96 well assay plates (Corning) and incubated with Duo-Glo luciferase substrates (Promega) to sequentially measure firefly and renilla luciferase activity. […] Wnt activity was measured following co-transfection of a Top-flash and renilla luciferase reporter. […] Luciferase signal was read by TopCount NX Microplate Scintillation and Luminescence Counter (Perkin Elmer). Quantitative PCR probes for Ptch1, Gli1, and β-actin were purchased from Applied Biosystems. […]

Smo::EGFP [8] = target: T1, Smo::EGFP; assay: Cyc-induced Smo ciliary accumulation (Smo::EGFP/Ivs::tagRFPT cells); format: cell-based; details: 5 μM Cyc
Protocol: as §4, §5

Smo::EGFP [9] = target: T1, Smo::EGFP; assay: FA promoted accumulation of Smo in the PC, inhibition by Smo antagonists; format: cell-based; details: FA-induced
Protocol: Cells were cultured and treated in 384-well imaging plate precoated with poly-D-Lysine (Greiner Bio-one), fixed with 4% paraformaldehyde (Electron Microscopy Sciences), and stained with Hoechst (Invitrogen). Images were collected using Opera High Content Screening System (Perkin Elmer). ActivityBase (IDBS), Pipeline Pilot (Accelrys), Excel (Microsoft), and Prism (GraphPad) were used for high content screening data management and analysis. Acapella 2.0 software (Evotec Technologies/PerkinElmer) was used to perform multi-parametric image quantification. All the comparative images were scanned with identical microscopic setting and analyzed with the same input parameters.

T1 sequence (Q99835 28-787): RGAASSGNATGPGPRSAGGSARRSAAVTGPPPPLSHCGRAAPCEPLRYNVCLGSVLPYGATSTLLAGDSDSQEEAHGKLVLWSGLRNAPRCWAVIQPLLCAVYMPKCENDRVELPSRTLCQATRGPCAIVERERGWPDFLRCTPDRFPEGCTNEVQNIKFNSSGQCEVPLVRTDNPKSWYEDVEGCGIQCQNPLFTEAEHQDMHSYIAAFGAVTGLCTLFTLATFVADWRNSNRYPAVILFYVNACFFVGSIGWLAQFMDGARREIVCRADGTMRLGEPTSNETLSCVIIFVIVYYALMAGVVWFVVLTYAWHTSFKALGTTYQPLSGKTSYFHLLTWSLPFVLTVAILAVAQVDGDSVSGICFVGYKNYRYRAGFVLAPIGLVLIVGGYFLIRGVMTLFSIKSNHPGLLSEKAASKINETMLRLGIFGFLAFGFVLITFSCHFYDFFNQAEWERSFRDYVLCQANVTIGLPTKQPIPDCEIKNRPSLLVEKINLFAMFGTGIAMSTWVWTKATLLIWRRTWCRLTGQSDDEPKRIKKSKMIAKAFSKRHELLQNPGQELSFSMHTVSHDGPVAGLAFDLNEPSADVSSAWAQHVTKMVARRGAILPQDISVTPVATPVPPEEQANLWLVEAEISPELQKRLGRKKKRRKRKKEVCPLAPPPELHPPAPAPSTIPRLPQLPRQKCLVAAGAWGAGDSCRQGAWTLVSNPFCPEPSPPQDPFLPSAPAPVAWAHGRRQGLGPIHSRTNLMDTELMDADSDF
T2 sequence (Q99835 28-787 W535L): as the sequence (Q99835 28-787) above, with W508L counted along it

Row | Compound | induction of Smo accumulation in the PC by compound alone (Smo::EGFP [1]) | transcriptional response in Gli-luciferase reporter assay (Hh pathway activity [2]; 1 μM SAG) [fold] | Hh pathway inhibition by the antagonist in the presence of FA (Hh pathway activity [3]) | competition of Bodipy-Cyc binding to Smo (Smo) | hypersensitivity to Hh pathway stimulation after priming with and removal of compound, Gli-luciferase (Hh pathway activity [4]) | peak plasma concentration [5] [µM] | inhibition of Shh-induced Smo::EGFP accumulation in the PC (Smo::EGFP [6]) | effect on SmoM2 ciliary localization (SmoM2::GFP) | IC50's for SmoM2 relative to IC50's for wildtype Smo (SmoM2) | effect on Hh pathway activation induced by loss of suFU [7] | effect on Cyc induced Smo cilial accumulation (Smo::EGFP [8]) | effect on FA promoted accumulation of Smo in the PC (Smo::EGFP [9]) | effect on FA induced activation of the Hh pathway (Hh pathway activity [2]; FA at high concentrations)
1 | CNC1CCC(N(Cc2cccc(-c3ccncc3)c2)C(=O)c2sc3ccccc3c2Cl)CC1 (centres unmarked) [SAG] | induces its accumulation in the PC | 25 | – | – | – | – | – | – | – | – | – | – | –
2 | CC1=C2C[C@H]3[C@@H](CC=C4C[C@@H](O)CC[C@@]43C)[C@@H]2CC[C@]12O[C@@H]1C[C@H](C)CN[C@H]1[C@H]2C [Cyc, Cyclopamine] | induces its accumulation in the PC | – | dramatically reduced | effective competitor | elevated signaling response | – | – | – | – | – | – | – | –
3 | C[C@@H]1C[C@H]2[C@@H]3CCC4=CC(=O)C=C[C@]4(C)[C@@]3(F)[C@@H](O)C[C@]2(C)[C@@]1(O)C(=O)CO [Dexamethasone] | – | – | – | – | – | > 10 | – | – | – | – | – | – | –
4 | CS(=O)(=O)c1ccc(C(=O)Nc2ccc(Cl)c(-c3ccccn3)c2)c(Cl)c1 [GDC0449] | – | – | dramatically reduced | – | no enhancing activity | – | specifically inhibited Smo::EGFP accumulation in the PC | did not alter SmoM2 ciliary accumulation | at least an order of magnitude higher | does not alter | effectively compete with Cyc | inhibit | –
5 | Cc1nn(-c2ccccc2)c(C)c1/C=N/N1CCN(Cc2ccccc2)CC1 [SANT-1] | – | – | dramatically reduced | effective competitor | – | – | specifically inhibited Smo::EGFP accumulation in the PC | did not alter SmoM2 ciliary accumulation | at least an order of magnitude higher | – | effectively compete with Cyc | inhibit | blocked
